Measured values published in US5196547A, “Meso-azacyclic amides of imidazopyridine carboxylic acids and analogs thereof” (G. D. Searle & Co., priority 1992, dated 1993).

Target: T1, 5-HT3 receptor (Rattus norvegicus, UniProt P35563)
T1 construct: Brain cortices are obtained from male rats and a membrane fraction prepared by standard techniques; from tissue; host or cells: male rat brain cortex, membrane fraction
T1 sequence (P35563 24-483): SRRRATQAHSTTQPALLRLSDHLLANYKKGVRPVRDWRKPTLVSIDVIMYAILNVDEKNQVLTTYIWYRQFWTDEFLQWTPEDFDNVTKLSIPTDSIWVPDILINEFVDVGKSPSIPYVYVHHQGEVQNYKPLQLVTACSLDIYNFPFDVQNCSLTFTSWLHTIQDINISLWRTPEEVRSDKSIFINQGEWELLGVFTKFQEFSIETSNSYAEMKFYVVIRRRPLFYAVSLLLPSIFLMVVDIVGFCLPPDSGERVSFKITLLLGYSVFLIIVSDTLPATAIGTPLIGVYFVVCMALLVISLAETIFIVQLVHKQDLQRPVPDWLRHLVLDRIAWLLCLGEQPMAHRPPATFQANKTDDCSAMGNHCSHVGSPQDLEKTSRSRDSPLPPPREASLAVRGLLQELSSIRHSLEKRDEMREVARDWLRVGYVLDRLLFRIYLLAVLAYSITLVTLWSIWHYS
Test: Serotonin (5-HT3) radioligand receptor binding assay, [3H]-GR65630
Description: 5-HT3 antagonism can be determined by the radioligand receptor binding assay as described herein and in the in vivo Bezold-Jarisch reflex procedure.
GR65630 binds to the 5-HT3 receptor. Brain cortices are obtained from male rats and a membrane fraction prepared by standard techniques. 0.04 mg of membrane prep is incubated with 0.2 nM [^3 H]-GR656630 for 60 minutes at 22° C. […] Membranes are filtered and washed 3 times and the filters are counted to determine [3H]-GR65630 specifically bound.*
*Literature References: Kilpatrick GJ, Jones BJ and Tyers MG. Identification and distribution of 5-HT3 receptors in rat brain using radioligand binding. Nature, 330 : 746-748, 1987.

What does the source list for Cc1nc[nH]c1CCC(=O)c1cn(C)c2ccccc12 [GR65630]?
Kd: 2.46 nM; % Specific Binding ([3H]-GR65630, non-specific binding in the presence of 1 uM ICS 205-930): 70%

For c1ccc2nc(N3CCNCC3)ccc2c1 [Quipazine], which IC50 is on record?
The IC50 was 0.5 nM.

What about the Ki of the same molecule?
Its Ki is 0.18 nM.

What does the source list for COc1ccc2[nH]cc(C3=CCNCC3)c2c1 [RU24969]?
IC50: 320 nM; Ki: 1850 nM

Which IC50 does the source give for COc1cc(N)c(Cl)cc1C(=O)NC1CN2CCC1CC2 (centres unmarked) [Zacopride] here?
The IC50 was 0.55 nM.

What about the Ki of the same molecule?
Its Ki is 0.18 nM.
